In one assay the target is KRas G12D (Homo sapiens, UniProt P01116, G12D). The assay can be described thus: biochemical. As to conditions: Binding to KRas (IC50 nM) G12D, TR-FRET displacement, KRas G12D. On the technique in general: TR-FRET usually uses a lanthanide donor and a delayed reading to cut background.
The target of the next assay is KRas G12C (Homo sapiens, UniProt P01116, G12C). In kind it is binding. The note with it: single point, 10 nM compound, read-out: Binding to KRas (% inhibition at 10 nM) G12C.
KRas G12C, sequence (P01116 1-169 isoform P01116-2 G12C): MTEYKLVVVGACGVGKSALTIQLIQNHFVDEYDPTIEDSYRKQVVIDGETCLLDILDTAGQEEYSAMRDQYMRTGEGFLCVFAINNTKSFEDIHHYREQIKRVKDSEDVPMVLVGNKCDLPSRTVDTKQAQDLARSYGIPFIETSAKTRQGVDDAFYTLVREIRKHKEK
The next assay concerns HCT116 cells. The experiment in a line: Inhibition of KRas-mediated phosphorylation of ERK (Cisbio HTRF pERK), HCT116 cells. In kind it is cell-based. The note with it: Homo sapiens, HCT-116, 3 h, 3 hr compound incubation, Cisbio pERK HTRF.
Another assay has as its system ASPC1 cells. The experiment in a line: Inhibition of KRas-mediated phosphorylation of ERK (Cisbio HTRF pERK), ASPC1 cells. The class given is cell-based. As to conditions: Homo sapiens, AsPC-1 cells; for IC50: ASPC1, 3 h, 3 hr compound incubation, Cisbio pERK HTRF; for inhibition at 0.1 µM: ASPC1, single point at 100 nM, 3 hrs compound incubation.
For another assay, the target named is KRas G12A (Homo sapiens, UniProt P01116, G12A). The class given is binding. The note with it: single point, 10 nM compound, read-out: Binding to KRas (% inhibition at 10 nM) G12A.
KRas G12A, sequence (P01116 1-169 isoform P01116-2 G12A): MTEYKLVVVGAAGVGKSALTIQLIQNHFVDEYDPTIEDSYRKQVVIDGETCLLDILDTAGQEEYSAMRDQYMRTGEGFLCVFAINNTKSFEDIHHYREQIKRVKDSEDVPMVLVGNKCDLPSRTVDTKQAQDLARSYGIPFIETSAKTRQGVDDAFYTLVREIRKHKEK
The next assay relates to MKN1 cells. The assay can be described thus: Inhibition of KRas-mediated phosphorylation of ERK (Cisbio HTRF pERK), MKN1 cells. In kind it is cell-based. As to conditions: Homo sapiens, MKN-1, 3 hour compound incubation, Cisbio pERK HTRF. In short, it runs like this: (§1)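 Growth medium is RPMI with 10% FBS, and each well receives 6,000 cells on the first day of the protocol.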

For another assay, the target named is KRas WT (Homo sapiens, UniProt P01116). The experiment in a line: KRas binding assay (TR-FRET displacement), KRas WT. The note with it: single point, 10 nM compound.
KRas WT, sequence (P01116 1-169 isoform P01116-2): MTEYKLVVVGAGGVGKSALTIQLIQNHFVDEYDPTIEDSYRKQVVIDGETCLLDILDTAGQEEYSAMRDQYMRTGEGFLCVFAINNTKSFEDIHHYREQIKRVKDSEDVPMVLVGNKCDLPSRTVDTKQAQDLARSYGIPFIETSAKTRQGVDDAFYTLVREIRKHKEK
For the next assay, the system named is A549 cells. The assay can be described thus: Inhibition of KRas-mediated phosphorylation of ERK (Cisbio HTRF pERK), A549 cells. In kind it is cell-based. The note with it: Homo sapiens; for IC50: A549, 3 h, 3 hr compound incubation, Cisbio pERK HTRF; for inhibition at 0.1 µM: single point at 100 nM, 3 hrs compound incubation.
The test system of the next assay is H460 cells. The experiment in a line: Inhibition of KRas-mediated phosphorylation of ERK (Cisbio HTRF pERK), H460 cells. In kind it is cell-based. The note with it: Homo sapiens, NCI-H460, 3 h, 3 hr compound incubation, Cisbio pERK HTRF.
For a further assay, the target named is KRas G12S (Homo sapiens, UniProt P01116, G12S). In kind it is binding. The note with it: single point, 10 nM compound, read-out: Binding to KRas (% inhibition at 10 nM) G12S.
KRas G12S, sequence (P01116 1-169 isoform P01116-2 G12S): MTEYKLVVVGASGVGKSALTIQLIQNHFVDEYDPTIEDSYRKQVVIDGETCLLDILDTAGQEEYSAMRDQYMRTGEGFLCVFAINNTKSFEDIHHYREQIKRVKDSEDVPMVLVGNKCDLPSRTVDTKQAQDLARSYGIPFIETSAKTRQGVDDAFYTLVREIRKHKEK
The next assay concerns PSN1 cells. The experiment in a line: Inhibition of KRas-mediated phosphorylation of ERK (Cisbio HTRF pERK), PSN1 cells. The class given is cell-based. As to conditions: Homo sapiens, PSN1, 3 h, 3 hour compound incubation, Cisbio pERK HTRF. The essentials:
as §1

For another assay, the target named is KRas G12V (Homo sapiens, UniProt P01116, G12V). The experiment in a line: biochemical. The note with it: Binding to KRas (IC50 nM) G12V, TR-FRET displacement, KRas G12V.
KRas G12V, sequence (P01116 1-169 isoform P01116-2 G12V): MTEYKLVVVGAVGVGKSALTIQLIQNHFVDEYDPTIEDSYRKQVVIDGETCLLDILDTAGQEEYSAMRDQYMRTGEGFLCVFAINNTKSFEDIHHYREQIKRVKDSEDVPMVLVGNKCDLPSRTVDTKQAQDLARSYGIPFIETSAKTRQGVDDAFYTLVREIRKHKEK
A further assay concerns H727 cells. The experiment in a line: Inhibition of KRas-mediated phosphorylation of ERK (Cisbio HTRF pERK), H727 cells. The note with it: Homo sapiens; for IC50: NCI-H727, 3 h, 3 hr compound incubation, Cisbio pERK HTRF; for inhibition at 0.1 µM: NCI-H727, single point at 100 nM, 3 hrs compound incubation. The class given is cell-based.
The next assay deals with KRas Q61H (Homo sapiens, UniProt P01116, Q61H). The experiment in a line: KRas binding assay (TR-FRET displacement), KRas Q61H. The note with it: single point, 10 nM compound.
KRas Q61H, sequence (P01116 1-169 isoform P01116-2 Q61H): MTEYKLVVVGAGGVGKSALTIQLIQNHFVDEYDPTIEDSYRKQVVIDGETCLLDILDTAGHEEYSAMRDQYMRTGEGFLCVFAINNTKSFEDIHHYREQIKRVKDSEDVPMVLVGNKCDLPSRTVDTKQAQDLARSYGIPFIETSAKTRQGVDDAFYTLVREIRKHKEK
For the next assay, the target named is KRas G12R (Homo sapiens, UniProt P01116, G12R). The experiment in a line: biochemical. The note with it: Binding to KRas (IC50 nM) G12R, TR-FRET displacement, KRas G12R.
KRas G12R, sequence (P01116 1-169 isoform P01116-2 G12R): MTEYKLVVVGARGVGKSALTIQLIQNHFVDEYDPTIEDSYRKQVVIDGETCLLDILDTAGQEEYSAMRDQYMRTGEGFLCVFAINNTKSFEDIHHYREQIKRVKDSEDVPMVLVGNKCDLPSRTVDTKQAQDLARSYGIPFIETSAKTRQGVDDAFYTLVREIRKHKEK
A further assay has as its target KRas G13D (Homo sapiens, UniProt P01116, G13D). The class given is binding. The note with it: single point, 10 nM compound, read-out: Binding to KRas (% inhibition at 10 nM) G13D.
The test system of the next assay is H358 cells. The assay can be described thus: Inhibition of KRas-mediated phosphorylation of ERK (Cisbio HTRF pERK), H358 cells. The note with it: Homo sapiens; for IC50: NCI-H358, 3 h, 3 hr compound incubation, Cisbio pERK HTRF; for inhibition at 0.1 µM: NCI-H358, single point at 100 nM, 3 hrs compound incubation. In kind it is cell-based.

Consider five compounds from patent publication US20250368649A1, “TETRAHYDROPYRIDOPYRIMIDINE PAN-KRAS INHIBITORS” (Mirati Therapeutics, Inc., priority 2022, published 2025).

Broadly, the IC50 is the concentration that inhibits the measured activity by half. A lower IC50 goes with greater potency in that assay. The inhibition is the change of the read-out against control, counted positive when it falls.

Each structure is given as a SMILES string. A value given as a limit tells only on which side of the number the result lay.

KRas G12D, sequence (P01116 1-169 isoform P01116-2 G12D): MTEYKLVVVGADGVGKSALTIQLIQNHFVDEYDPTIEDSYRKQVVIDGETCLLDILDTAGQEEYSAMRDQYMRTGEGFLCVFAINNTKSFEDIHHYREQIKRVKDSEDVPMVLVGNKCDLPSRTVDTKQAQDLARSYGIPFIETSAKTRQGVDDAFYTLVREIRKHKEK
KRas G13D, sequence (P01116 1-169 isoform P01116-2 G13D): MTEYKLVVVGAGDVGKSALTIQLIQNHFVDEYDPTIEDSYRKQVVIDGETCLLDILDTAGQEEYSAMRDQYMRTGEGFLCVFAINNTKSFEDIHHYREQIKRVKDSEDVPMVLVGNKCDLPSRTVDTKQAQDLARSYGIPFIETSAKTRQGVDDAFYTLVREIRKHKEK

Consider `CCc1c(F)ccc2cc(O)cc(N3CCc4c(nc(OC[C@@]56CCCN5C[C@H](F)C6)nc4N4CCCn5nc(C(=O)N(C)C(C)C)cc5C4)C3)c12` [Example 381, 5-(7-(8-ethyl-7-fluoro-3-hydroxynaphthalen-1-yl)-2-(((2R,7aS)-2-fluorohexahydro-11H-pyrrolizin-7a-yl)methoxy)-5,6,7,8-tetrahydropyrido[3,4-d]pyrimidin-4-yl)-N-isopropyl-N-methyl-5,6,7,8-tetrahydro-4H-pyrazolo[1,5-a][1,4]diazepine-2-carboxamide], for which the IC50 was < 2 nM at KRas G12D; 45 nM with HCT116 cells; 2 nM with ASPC1 cells; 7 nM in the assay on MKN1 cells; 7 nM in the assay with A549 cells; 11 nM in the assay with H460 cells. Moreover, the IC50 is 3620 nM in the assay on PSN1 cells; < 2 nM on KRas G12V; 3 nM with H727 cells; < 2 nM on KRas G12R; 1 nM in the assay with H358 cells. The inhibition at 0.01 µM at KRas G12C was 99%; on KRas G12A it was 97%; at KRas WT, 97%; on KRas G12S it was 99%; at KRas Q61H, 97%; at KRas G13D it was 97%. In addition, the inhibition at 0.1 µM with A549 cells stood at 85%; with H358 cells, 98%.

Regarding `CCc1c(F)ccc2cc(O)cc(N3CCc4c(nc(OC[C@@]56CCCN5C[C@H](F)C6)nc4N4CCCn5nc(C(=O)N(C)CCOC)cc5C4)C3)c12` [Example 382, 5-(7-(8-ethyl-7-fluoro-3-hydroxynaphthalen-1-yl)-2-(((2R,7aS)-2-fluorohexahydro-1H-pyrrolizin-7a-yl)methoxy)-5,6,7,8-tetrahydropyrido[3,4-d]pyrimidin-4-yl)-N-(2-methoxyethyl)-N-methyl-5,6,7,8-tetrahydro-4H-pyrazolo[1,5-a][1,4]diazepine-2-carboxamide], the IC50 at KRas G12D is < 2 nM; with HCT116 cells, 51 nM; in the assay with ASPC1 cells, 2 nM; in the assay on MKN1 cells, 8.4 nM; with A549 cells, 15 nM; in the assay with H460 cells, 25 nM. For the same compound, the IC50 in the assay on PSN1 cells was 2290 nM; at KRas G12V, < 2 nM; in the assay on H727 cells, 4 nM; at KRas G12R it was < 2 nM; with H358 cells, 1 nM. Also, the inhibition at 0.01 µM at KRas G12C was 100%; on KRas G12A it was 98%; at KRas WT, 97%; on KRas G12S, 99%; on KRas Q61H it was 97%; at KRas G13D, 98%. Moreover, the inhibition at 0.1 µM in the assay on A549 cells worked out at 80%; with H358 cells, 99%.

With `CCc1c(F)ccc2cc(O)cc(N3CCc4c(nc(OC[C@@]56CCCN5C[C@H](F)C6)nc4N4CCCn5nc(C(=O)N(C)C6CC6)cc5C4)C3)c12` [Example 383, N-cyclopropyl-5-(7-(8-ethyl-7-fluoro-3-hydroxynaphthalen-1-yl)-2-(((2R,7aS)-2-fluorohexahydro-1H-pyrrolizin-7a-yl)methoxy)-5,6,7,8-tetrahydropyrido[3,4-d]pyrimidin-4-yl)-N-methyl-5,6,7,8-tetrahydro-4H-pyrazolo[1,5-a][1,4]diazepine-2-carboxamide], the IC50 on KRas G12D is < 2 nM; in the assay with HCT116 cells, 73 nM; with ASPC1 cells, 1 nM; with MKN1 cells, 7.8 nM; in the assay with A549 cells, 5 nM; in the assay on H460 cells, 13 nM. For the same compound, the concentration for half-maximal inhibition (IC50) was 3680 nM with PSN1 cells; < 2 nM on KRas G12V; 2 nM in the assay on H727 cells; < 2 nM at KRas G12R; 2 nM in the assay with H358 cells. Further, the inhibition at 0.01 µM at KRas G12C worked out at 99%; on KRas G12A it was 96%; at KRas WT, 97%; on KRas G12S, 99%; on KRas Q61H it was 98%; at KRas G13D, 97%. The inhibition at 0.1 µM in the assay on ASPC1 cells stood at 97%; in the assay with A549 cells, 90%; in the assay on H727 cells it was 85%; in the assay with H358 cells it was 98%.

For `CCc1c(F)ccc2cc(O)cc(N3CCc4c(nc(OC[C@@]56CCCN5C[C@H](F)C6)nc4N4CCCn5nc(C(=O)NC6CC6)cc5C4)C3)c12` [Example 384, N-cyclopropyl-5-(7-(8-ethyl-7-fluoro-3-hydroxynaphthalen-1-yl)-2-(((2R,7aS)-2-fluorohexahydro-1H-pyrrolizin-7a-yl)methoxy)-5,6,7,8-tetrahydropyrido[3,4-d]pyrimidin-4-yl)-5,6,7,8-tetrahydro-4H-pyrazolo[1,5-a][1,4]diazepine-2-carboxamide], the IC50 was < 2 nM at KRas G12D; 91 nM in the assay with HCT116 cells; 2 nM with ASPC1 cells; 9 nM with MKN1 cells; 17 nM in the assay on A549 cells; 25 nM in the assay on H460 cells. For the same compound, the IC50 was 3880 nM in the assay on PSN1 cells; < 2 nM at KRas G12V; 6 nM in the assay on H727 cells; < 2 nM at KRas G12R; 5 nM in the assay on H358 cells. In addition, the inhibition at 0.01 µM on KRas G12C is 99%; at KRas G12A it was 91%; on KRas WT, 94%; at KRas G12S, 98%; at KRas Q61H it was 95%; at KRas G13D, 93%. Also, the inhibition at 0.1 µM is 98% in the assay with ASPC1 cells, 65% in the assay with A549 cells, 79% with H727 cells and 100% in the assay on H358 cells.

On to `CCc1c(F)ccc2cc(O)cc(N3CCc4c(nc(OC[C@@]56CCCN5C[C@H](F)C6)nc4N4CCCn5nc(C(=O)N(C)C6CCC6)cc5C4)C3)c12` [Example 385, N-cyclobutyl-5-(7-(8-ethyl-7-fluoro-3-hydroxynaphthalen-1-yl)-2-(((2R,7aS)-2-fluorohexahydro-1H-pyrrolizin-7a-yl)methoxy)-5,6,7,8-tetrahydropyrido[3,4-d]pyrimidin-4-yl)-N-methyl-56,7,8-tetrahydro-4H-pyrazolo[1,5-a][1,4]diazepine-2-carboxamide], for which the IC50 was < 2 nM on KRas G12D; 85 nM in the assay with HCT116 cells; 3 nM with ASPC1 cells; 14.4 nM in the assay on MKN1 cells; 15 nM with A549 cells; 22 nM in the assay on H460 cells. Further, the IC50 is 3980 nM in the assay with PSN1 cells; < 2 nM at KRas G12V; 5 nM in the assay on H727 cells; < 2 nM at KRas G12R; 2 nM with H358 cells. The inhibition at 0.01 µM on KRas G12C amounted to 98%; on KRas G12A it was 96%; at KRas WT, 95%; at KRas G12S, 98%; on KRas Q61H, 96%; on KRas G13D, 94%. Also, the values for the inhibition at 0.1 µM with A549 cells and in the assay with H358 cells were 74% and 94%, respectively.
